Data reported in patent US20220274979A1 (Bayer Pharma Aktiengesellschaft, priority 2018, published 2022).

How the values were obtained:
[1] = target: T1, hSOS1 (hSOS1-mediated nucleotide exchange of hK-RasG12C) (Homo sapiens, UniProt Q07889); assay: Biochemical Assay 2: hK-RasG12C activation assay by hSOS1 at high GTP concentration (HTRF nucleotide exchange); conditions: high GTP (50 μM GTP)
T1 construct: hSOS1 (amino acid 564-1049); made in house; host or cells: E. coli BL21 (DE3)
T1 sequence (Q07889 with tags, fused parts or gaps): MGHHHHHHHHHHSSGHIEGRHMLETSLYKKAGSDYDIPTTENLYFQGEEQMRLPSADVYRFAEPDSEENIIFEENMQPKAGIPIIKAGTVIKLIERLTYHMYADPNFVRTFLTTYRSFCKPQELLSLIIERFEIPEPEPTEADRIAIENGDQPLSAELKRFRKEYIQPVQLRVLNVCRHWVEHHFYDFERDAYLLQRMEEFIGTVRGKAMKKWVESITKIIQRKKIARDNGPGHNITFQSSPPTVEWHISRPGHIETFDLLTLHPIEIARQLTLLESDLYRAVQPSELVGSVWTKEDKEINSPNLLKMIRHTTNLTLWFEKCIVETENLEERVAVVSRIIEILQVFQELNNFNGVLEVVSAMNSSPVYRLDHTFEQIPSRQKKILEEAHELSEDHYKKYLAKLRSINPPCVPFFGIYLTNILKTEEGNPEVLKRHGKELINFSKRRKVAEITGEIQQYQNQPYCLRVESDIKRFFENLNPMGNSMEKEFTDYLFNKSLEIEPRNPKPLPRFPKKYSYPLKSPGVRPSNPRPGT
Description: Biochemical Assay 2: hK-RasG12C Activation Assay by hSOS1 at High GTP Concentration
This assay quantifies human SOS1-mediated nucleotide exchange of human K-Ras^G12C (hK-RasG12C) preloaded with a fluorescent […] and in presence of an excess of free GTP. Loaded hK-RasG12C generates a high HTRF-signal by energy transfer from antiGST-Terbium (FRET donor) bound to hK-Ras to the loaded fluorescent GDP analog (FRET-acceptor). hSOS1 activity exchanges the fluorescent GDP for non-fluorescent GTP and therefore leads to a reduction of the HTRF signal.
The fluorescent GDP-analog EDA-GDP-Dy647P1 (2′/3′-O-(2-Aminoethyl-carbamoyl)-guanosine-5′-diphosphate labelled with Dy647P1 (Dyomics GmbH, Germany)) was synthesized by Jena Biosciences GmbH (Germany) and supplied as a 1 mM aqueous solution.
Concentrations of protein batches used were optimized to be within the linear range of the HTRF signal.
Addition of 20 μl 1 M MgCl2 (Sigma) to final 40 mM and store on ice. Purification into buffer (10 mM HEPES pH 7.4 (Applichem), 150 mM NaCl (Sigma), 5 mM MgCl2 (Sigma)) by use of a PD-Minitrap desalting column (GE Healthcare). Concentration of 1 ml purified hK-Ras-GDP-Dy647 is approx. 4-5 μM.
The assay buffer contained 10 mM HEPES pH 7.4 (Applichem), 150 mM NaCl (Sigma), 5 mM MgCl2 (Sigma), 1 mM DTT (Thermofisher), 0.05% BSA Fraction V, pH 7.0, (ICN Biomedicals), 0.0025% (v/v) Igepal (Sigma).
A Ras working solution was prepared in assay buffer containing typically 80 nM loaded GST-hK-RasG12C-EDA-GDP-Dy647P1 and 2 nM antiGST-Tb (Cisbio, France).
Alternatively, the inhibitor control solution was prepared by supplementing the hSOS1 working solution with 20 μM of 6,7-dimethoxy-N-[(1R)-1-(1-naphthyl)ethyl]quinazolin-4-amine which was used to calibrate the assay.
(§1) Fifty nl of a 100-fold concentrated solution of the test compound in DMSO were transferred into a black microtiter test plate (384 or 1536, Greiner Bio-One, Germany) For this, either a Hummingbird liquid handler (Digilab, Mass., USA) or an Echo acoustic system (Labcyte, Calif., USA) was used.
(§2) All steps of the assay were performed at 20° C. A volume of 2.5 μl of the Ras working solution was added to all wells of the test plate using a Multidrop dispenser (Thermo Labsystems). After 2 min. preincubation, 2.5 μl of the hSOS1 working solution were added to all wells except for those wells at the side of the test plate that were subsequently filled with 2.5 μl of the inhibitor control solution. After 20 min. incubation the fluorescence was measured with a Pherastar (BMG, Germany) using the HTRF module (excitation 337 nm, emission 1:620 nm, emission 2:665 nm).
(§3) IC50 values were calculated by 4-Parameter fitting using a commercial software package (Genedata Screener, Switzerland).

[2] = target: T2, hK-RasG12C - hSOS1 interaction (Homo sapiens, UniProt Q07889); assay: Biochemical Assay 1: hK-RasG12C interaction assay with hSOS1 (HTRF); format: binding; conditions: for IC50: values expressed as IC50; for inhibition at 20 µM: read-out: Assay 1 (hKRAS, hSOS Interaction) activity (expressed as IC50, or as % inhibition at 20 μM)
T2 construct: hSOS1 (amino acid 564-1049); made in house; host or cells: E. coli BL21 (DE3)
T2 sequence (Q07889 with tags, fused parts or gaps): T1 sequence (Q07889 with tags, fused parts or gaps)
Protocol: Biochemical Assay 1: hK-RasG12C Interaction Assay with hSOS1
This assay quantifies the equilibrium interaction of human SOS1 (hSOS1) with human K-Ras^G12C (hK-RasG12C). Detection of the interaction is achieved by measuring homogenous time-resolved fluorescence resonance energy transfer (HTRF) from antiGST-Europium (FRET donor) bound to GST-K-RasG12C to anti-6His-XL665 bound to His-tagged hSOS1 (FRET-acceptor).
The assay buffer contained 5 mM HEPES pH 7.4 (Applichem), 150 mM NaCl (Sigma), 10 mM EDTA (Promega), 1 mM DTT (Thermofisher), 0.05% BSA Fraction V, pH 7.0, (ICN Biomedicals), 0.0025% (v/v) Igepal (Sigma) and 100 mM KF (FLUKA).
Concentrations of protein batches used were optimized to be within the linear range of the HTRF signal. A Ras working solution was prepared in assay buffer containing typically 10 nM GST-hK-RasG12C and 2 nM antiGST-Eu(K) (Cisbio, France). A SOS1 working solution was prepared in assay buffer containing typically 20 nM His-hSOS1 and 10 nM anti-6His-XL665 (Cisbio, France). An inhibitor control solution was prepared in assay buffer containing 10 nM anti-6His-XL665 without hSOS1.
as §1
as §2, with “[…]” for “min.”, “SOS1” for “hSOS1”, “[…]” for “20 min.”
as §3

Structure (SMILES)	IC50 [1] [nM]	IC50 [2] [nM]	inhibition at 20 µM [2] [%]
Cc1nc(NC(C)c2ccc(-c3ccccc3CN(C)C)s2)c2cc(N3CC(NC(=O)CCCn4c(-c5ccccn5)nc(C)c4C)C3)ncc2n1 (stereo not shown) [Example 87, N-[1-(4-{[1-(5-{2-[(dimethylamino)methyl]phenyl}thiophen-2-yl)ethyl]amino}-2-methylpyrido[3,4-d]pyrimidin-6-yl)azetidin-3-yl]-4-[4,5-dimethyl-2-(pyridin-2-yl)-1H-imidazol-1-yl]butanamide]	240	71	
Cc1nc(NC(C)c2ccc(-c3ccccc3CN(C)C)s2)c2cc(N3CC(NC(=O)C4CCCCC4)C3)ncc2n1 (stereo not shown) [Example 90, N-[1-(4-{[1-(5-{2-[(dimethylamino)methyl]phenyl}thiophen-2-yl)ethyl]amino}-2-methylpyrido[3,4-d]pyrimidin-6-yl)azetidin-3-yl]cyclohexanecarboxamide]	154	63	
Cc1nc(N[C@H](C)c2cccc(Br)c2)c2cc(N3CCNC(=O)C3)ncc2n1 [Example 45]	506	91.8	
COCCOc1ccc2nc(C)nc(N[C@H](C)c3cccc(Br)c3)c2n1 [Example 30, N-[(1R)-1-(3-bromophenyl)ethyl]-6-(2-methoxyethoxy)-2-methylpyrido[3,2-d]pyrimidin-4-amine]	5740	5430	
Cc1nc(N[C@H](C)c2cccc(Br)c2)c2cc(OCCN(C)C)ncc2n1 [Example 78, N-[(1R)-1-(3-bromophenyl)ethyl]-6-[2-(dimethylamino)ethoxy]-2-methylpyrido[3,4-d]pyrimidin-4-amine]	1040	1280	
Cc1nc(N[C@H](C)c2cccc(Br)c2)c2cc(N3CCN(Cc4cccnc4)CC3)ncc2n1 [Example 43, N-[(1R)-1-(3-bromophenyl)ethyl]-2-methyl-6-[4-(pyridin-3-ylmethyl)piperazin-1-yl]pyrido[3,4-d]pyrimidin-4-amine]	380	296	
Cc1nc(NC(C)c2ccc(-c3ccccc3CN(C)C)s2)c2cc(NCCN3CCOCC3)ncc2n1 (stereo not shown) [Example 48]	141	38.8	
CCOc1ccc2nc(C)nc(N[C@H](C)c3cccc(Br)c3)c2n1 [Example 29, N-[(1R)-1-(3-bromophenyl)ethyl]-6-ethoxy-2-methylpyrido[3,2-d]pyrimidin-4-amine]	> 20000	17400	
Cc1nc(NC(C)c2ccc(Br)s2)c2cc(F)ncc2n1 (stereo not shown) [Example 35]	> 20000		23.5
Cc1nc(N[C@H](C)c2cccc(Br)c2)c2nc(N(C)C)ncc2n1 [Example 21]	> 20000		26.3
Cc1nc(N[C@H](C)c2cccc(Br)c2)c2cc(OCC3CC3)ncc2n1 [Example 75, N-[(1R)-1-(3-bromophenyl)ethyl]-6-(cyclopropylmethoxy)-2-methylpyrido[3,4-d]pyrimidin-4-amine]	3190	4180	
Cc1nc(NC(C)c2ccc(-c3ccccc3CN(C)C)s2)c2cc(N3CC(NC(=O)CC4CC4)C3)ncc2n1 (stereo not shown) [Example 91, 2-cyclopropyl-N-[1-(4-{[1-(5-{2-[(dimethylamino)methyl]phenyl}thiophen-2-yl)ethyl]amino}-2-methylpyrido[3,4-d]pyrimidin-6-yl)azetidin-3-yl]acetamide]	137	55.1	
Cc1nc(NC(C)c2ccc(-c3ccccc3CN(C)C)s2)c2cc(NCC3CCNC(=O)C3)ncc2n1 (stereo not shown) [Example 86, 4-{[(4-{[1-(5-{2-[(dimethylamino)methyl]phenyl}thiophen-2-yl)ethyl]amino}-2-methylpyrido[3,4-d]pyrimidin-6-yl)amino]methyl}piperidin-2-one]	127	119	
Cc1nc(N[C@H](C)c2cccc(Br)c2)c2cc(OCCCN(C)C)ncc2n1 [Example 70, N-[(1R)-1-(3-bromophenyl)ethyl]-6-[3-(dimethylamino)propoxy]-2-methylpyrido[3,4-d]pyrimidin-4-amine]	951	409	
CC(=O)NCCOc1cc2c(N[C@H](C)c3cccc(Br)c3)nc(C)nc2cn1 [Example 62, N-{2-[(4-{[(1R)-1-(3-bromophenyl)ethyl]amino}-2-methylpyrido[3,4-d]pyrimidin-6-yl)oxy]ethyl}acetamide]	443	291	
CNCc1ccccc1-c1ccc(C(C)Nc2nc(C)nc3cnc(Oc4ccc(N5CCCC5=O)cc4)cc23)s1 (stereo not shown) [Example 38, 1-{4-[(2-methyl-4-{[1-(5-{2-[(methylamino)methyl]phenyl}thiophen-2-yl)ethyl]amino}pyrido[3,4-d]pyrimidin-6-yl)oxy]phenyl}pyrrolidin-2-one]	601	218	
CC(=O)NC1CCN(c2cc3c(N[C@H](C)c4cccc(Br)c4)nc(C)nc3cn2)C1 (mixture of isomers) [Example 42, N-[1-(4-{[(1R)-1-(3-bromophenyl)ethyl]amino}-2-methylpyrido[3,4-d]pyrimidin-6-yl)pyrrolidin-3-yl]acetamide]	215	187	
Cc1nc(N[C@H](C)c2cccc(Br)c2)c2cc(Oc3cccc(O)c3)ncc2n1 [Example 40, 3-[(4-{[(1R)-1-(3-bromophenyl)ethyl]amino}-2-methylpyrido[3,4-d]pyrimidin-6-yl)oxy]phenol]	8660	13200	
COc1cc2c(N[C@H](C)c3ccc(F)c(C4CC4)c3)nc(C)nc2cn1 [Example 12]	6450	5840	
Cc1nc(N[C@H](C)c2cccc(Br)c2)c2nc(N(C)C)ccc2n1 [Example 31]	≥ 40000	17700	
